Laboratory results as given in patent US20220332774A1, “THERAPEUTIC MITOCHONDRIAL PEPTIDES” (priority 2019, published 2022).

Legend:
3T3-L1 Mouse Adipocytes = experiment: Free fatty acid levels in cultured 3T3-L1 mouse adipocytes (isoproterenol stimulated); assay type: cell-based; conditions: free fatty acid in medium; 5 μM peptide, 20-22 h pre-incubation then 3 h with 0.1 nM isoproterenol; isoproterenol alone = 100%
Procedure: The effect of the peptides on fatty acid metabolism can be assessed using an assay to monitor free fatty acid levels produced by cultured cells such as mouse adipocytes. Peptide arrays were initially prepared as 5 mM stock in DMSO and diluted to 0.5 mM in H2O; peptides were used at a final concentration of 5 μM (0.1% DMSO). Calculations for peptide concentrations based on approximate molecular weight of 2000 Daltons. […] Mouse 3T3-L1 cells purchased from ZenBio (Research Triangle Park, NC) were seeded at 3,000 cells per well in 96-well plates in Pre-adipocyte Medium (Zen-Bio) and grown to confluence at 37° C. in a humidified atmosphere of 5% CO2/95% air. Two days after confluence, cells were placed in Adipocyte Differentiation Medium (Zen-Bio) and cultured for three additional days at 37° C. in a humidified atmosphere of 5% CO2/95% air. The culture medium was then replaced with Adipocyte Maintenance Medium (Zen-Bio) and the cells maintained for an additional 9 days at 37° C. in a humidified atmosphere of 5% CO2/95% air with partial medium replacement every other day. Following 12 days of differentiation, medium was replaced Adipocyte Maintenance Medium without insulin and the cultures placed at 37° C. in a humidified atmosphere of 5% CO2/95% air. On day 13 of differentiation, test peptides were added directly to each well (without replacing the medium) at a final concentration of 5 μM in 0.1% DMSO and incubated for 20-22 hours at 37° C. in a humidified atmosphere of 5% CO2/95% air. […] Cells were incubated for 3 hours in Assay Buffer (Zen-Bio) at 37° C. in a humidified atmosphere of 5% CO2/95% air. Following 3 h incubation, conditioned medium from each well was transferred to a fresh 96-well plate. Free fatty acid concentrations in the medium were determined using a Free Fatty Acid Assay kit (Zen-Bio) according to the manufacturer's instructions; absorbance was measured using a Cytation 3 plate reader at 540 nm (BioTek, Winooski, Vt.). Treatment with 0.1 nM isoproterenol alone was used as the free fatty acid level stimulatory control. Absorbance values were expressed as percent control activity relative to 0.1 nM isoproterenol alone treated cells, 100%. The relative standard deviation of the isoproterenol control was <10%. Insulin at 0.25 nM was used as a potent control for decreasing free fatty acid levels. […] Data presented are representative values from 2 independent experiments with each data point performed in triplicate in each independent experiment.

C2C12 Cells = experiment: Glucose utilization in cultured C2C12 cells (myotubes); assay type: cell-based, mouse; conditions: glucose concentration in medium relative to untreated cells; 5 μM peptide, 22 h
Procedure: The effect of the peptides on glucose homeostasis can be assessed using an assay to monitor glucose utilization by cultured cells such as mouse myotubes. Peptide arrays were initially prepared as 5 mM stock in DMSO and diluted to 0.5 mM in H2O; peptides were used at a final concentration of 5 μM (0.1% DMSO). Calculations for peptide concentrations based on approximate molecular weight of 2000 Daltons. C2C12 mouse muscle cell line was purchased from Millipore Sigma (Saint Louis, Mo.). C2C12 cells were seeded in standard medium (DMEM/low glucose (1 g/L)+10% Fetal Bovine Serum+antibiotics) at 7,500 cells/well on 96-well plates and grown to confluence at 37° C. in a humidified atmosphere of 5% CO2/95% air. Three days after plating the medium was removed and with Differentiation Medium (DMEM/low glucose (1 g/L)+2% Horse Serum+antibiotics) added. The cultures were placed at 37° C. in a humidified atmosphere of 5% CO2/95% air for 5 days with partially replacement of medium daily. After 5 days of differentiation, the medium was removed from myotube cultures and replaced with Assay Medium (DMEM/low glucose (1 g/L)+antibiotics). Culture were placed at 37° C. in a humidified atmosphere of 5% CO2/95% air for 5 h. Following the 5 h incubation the medium was removed and fresh Assay Medium containing compounds was added; 5 μM peptide or 1 mM metformin as a potent stimulator of glucose utilization. Cells were incubated for 22 h at 37° C. in a humidified atmosphere of 5% CO2/95% air. Following 22 h incubation, conditioned medium from each well was transferred to a fresh 96-well plate. Glucose concentrations in the medium were determined using a Glucose Assay kit (Abcam; Cambridge, Mass.) according to the manufacturer's instructions; absorbance measured using a Cytation 3 plate reader at 570 nm (BioTek, Winooski, Vt.). Untreated cells were used as reference for basal glucose utilization. Absorbance values were expressed as percent control activity relative to untreated treated cells for 5 μM peptide. The relative standard deviation from plate to plate of untreated control was <10%. […] Data presented are representative values from 2-3 independent experiments with each data point performed in triplicate in each independent experiment.

H4-IIE Cells = experiment: Glucose production in cultured H4-IIE cells; assay type: cell-based, rat; conditions: glucose concentration in medium relative to untreated cells; 5 μM peptide, 24 h
Procedure: The effect of the peptides on glucose homeostasis can be assessed using an assay to monitor glucose production by cultured cells such as rat hepatocytes. Peptide arrays were initially prepared as 5 mM stock in DMSO and diluted to 0.5 mM in H2O; peptides were used at a final concentration of 5 μM (0.1% DMSO). Calculations for peptide concentrations based on approximate molecular weight of 2000 Daltons. H4-IIE rat hepatic cell line was purchased from American Type Culture Collection (Manassas, Va.). H4-IIE cells were seeded in standard medium (DMEM/high glucose+10% Fetal Bovine Serum+antibiotics) at 100,000 cells/well on 96-well plates and allowed to adhere overnight at 37° C. in a humidified atmosphere of 5% CO2/95% air. 24 h after seeding, the medium was removed, cells were rinsed with glucose free DMEM, and the medium replaced with Glucose Production Medium (glucose free DMEM+2 mM sodium pyruvate+10 mM sodium lactate+antibiotics). The cultures were placed at 37° C. in a humidified atmosphere of 5% CO2/95% air overnight. The next morning, the medium was removed and fresh Glucose Production Medium containing compounds was added; 5 uM peptide or 0.5-1 nM insulin as a potent inhibitor of glucose production. Cells were incubated for 24 h at 37° C. in a humidified atmosphere of 5% CO2/95% air. Following 24 h incubation, conditioned medium from each well was transferred to a fresh 96-well plate. Glucose concentrations in the medium were determined using a Glucose Assay kit (Abcam; Cambridge, Mass.) according to the manufacturer's instructions; absorbance measured using a Cytation 3 plate reader at 570 nm (BioTek, Winooski, Vt.). Untreated cells were used as reference for maximal glucose production. Absorbance values were expressed as percent control activity relative to untreated treated cells for 5 μM peptide. The relative standard deviation from plate to plate of untreated control was <25%. […] Glucose levels for 0.5-1 nM insulin treatment were <5% of the untreated control value. Data are presented as representative values from 2-3 independent experiments with each data point performed in triplicate in each independent experiment.

62 (MLGVVGWCRL) [compound 62]
Percent of Isoproterenol Control Activity (3T3-L1 Mouse Adipocytes): 94%
Percent of Control Activity (C2C12 Cells): 91%
Percent of Control Activity (H4-IIE Cells): 106%

65 (MLKPETSSDSPSA) [compound 65]
Percent of Isoproterenol Control Activity (3T3-L1 Mouse Adipocytes): 99%
Percent of Control Activity (C2C12 Cells): 99%
Percent of Control Activity (H4-IIE Cells): 102%

66 (MLLGWRFQLGAWVGGLQ) [compound 66]
Percent of Isoproterenol Control Activity (3T3-L1 Mouse Adipocytes): 104%
Percent of Control Activity (C2C12 Cells): 101%
Percent of Control Activity (H4-IIE Cells): 101%

67 (MLLMWWVSEPHCVVVNM) [compound 67]
Percent of Isoproterenol Control Activity (3T3-L1 Mouse Adipocytes): 116%
Percent of Control Activity (C2C12 Cells): 88%
Percent of Control Activity (H4-IIE Cells): 107%

68 (MLLNSHRCSMSKDNHHSP) [compound 68]
Percent of Isoproterenol Control Activity (3T3-L1 Mouse Adipocytes): 99%
Percent of Control Activity (C2C12 Cells): 99%
Percent of Control Activity (H4-IIE Cells): 105%

69 (MLMVEWWLGWLHM) [compound 69]
Percent of Isoproterenol Control Activity (3T3-L1 Mouse Adipocytes): 104%
Percent of Control Activity (C2C12 Cells): 107%
Percent of Control Activity (H4-IIE Cells): 111%

70 (MLNWSNNLTNGTSYP) [compound 70]
Percent of Isoproterenol Control Activity (3T3-L1 Mouse Adipocytes): 110%
Percent of Control Activity (C2C12 Cells): 118%
Percent of Control Activity (H4-IIE Cells): 105%

71 (MLPLHIYHNTMGLTHPPH) [compound 71]
Percent of Isoproterenol Control Activity (3T3-L1 Mouse Adipocytes): 89%
Percent of Control Activity (C2C12 Cells): 105%
Percent of Control Activity (H4-IIE Cells): 107%

72 (MLQGQAHLSILFSI) [compound 72]
Percent of Isoproterenol Control Activity (3T3-L1 Mouse Adipocytes): 96%
Percent of Control Activity (C2C12 Cells): 97%
Percent of Control Activity (H4-IIE Cells): 107%

73 (MLRSMLWNLWSKPQFHAHRP) [compound 73]
Percent of Isoproterenol Control Activity (3T3-L1 Mouse Adipocytes): 98%
Percent of Control Activity (C2C12 Cells): 111%
Percent of Control Activity (H4-IIE Cells): 111%

75 (MLTPGLVNFVPATAVTRLTQVN) [compound 75]
Percent of Isoproterenol Control Activity (3T3-L1 Mouse Adipocytes): 79%
Percent of Control Activity (C2C12 Cells): 100%
Percent of Control Activity (H4-IIE Cells): 112%

78 (MMAHLGKKPVSGG) [compound 78]
Percent of Isoproterenol Control Activity (3T3-L1 Mouse Adipocytes): 96%
Percent of Control Activity (C2C12 Cells): 106%
Percent of Control Activity (H4-IIE Cells): 114%

79 (MMCLRFRWCGLWS) [compound 79]
Percent of Isoproterenol Control Activity (3T3-L1 Mouse Adipocytes): 90%
Percent of Control Activity (C2C12 Cells): 94%
Percent of Control Activity (H4-IIE Cells): 116%

80 (MMDPEHMNSMALKKAWVQMC) [compound 80]
Percent of Isoproterenol Control Activity (3T3-L1 Mouse Adipocytes): 87%
Percent of Control Activity (C2C12 Cells): 99%
Percent of Control Activity (H4-IIE Cells): 111%

81 (MMFPIRLHNSPIRP) [compound 81]
Percent of Isoproterenol Control Activity (3T3-L1 Mouse Adipocytes): 90%
Percent of Control Activity (C2C12 Cells): 118%
Percent of Control Activity (H4-IIE Cells): 115%

82 (MMGITMKKIITNAWAVTMTL) [compound 82]
Percent of Isoproterenol Control Activity (3T3-L1 Mouse Adipocytes): 98%
Percent of Control Activity (C2C12 Cells): 105%
Percent of Control Activity (H4-IIE Cells): 114%

83 (MMGMWLVGHYVLSC) [compound 83]
Percent of Isoproterenol Control Activity (3T3-L1 Mouse Adipocytes): 102%
Percent of Control Activity (C2C12 Cells): 95%
Percent of Control Activity (H4-IIE Cells): 109%

84 (MMKGKMKWKVKNRV) [compound 84]
Percent of Isoproterenol Control Activity (3T3-L1 Mouse Adipocytes): 99%
Percent of Control Activity (C2C12 Cells): 95%
Percent of Control Activity (H4-IIE Cells): 108%

85 (MMKLRLTPWRLPDPPNHH) [compound 85]
Percent of Isoproterenol Control Activity (3T3-L1 Mouse Adipocytes): 81%
Percent of Control Activity (C2C12 Cells): 88%
Percent of Control Activity (H4-IIE Cells): 108%

86 (MMLSWDDIIYGG) [compound 86]
Percent of Isoproterenol Control Activity (3T3-L1 Mouse Adipocytes): 98%
Percent of Control Activity (C2C12 Cells): 87%
Percent of Control Activity (H4-IIE Cells): 108%

87 (MMMFVYSAMKN) [compound 87]
Percent of Isoproterenol Control Activity (3T3-L1 Mouse Adipocytes): 101%
Percent of Control Activity (C2C12 Cells): 97%
Percent of Control Activity (H4-IIE Cells): 109%

88 (MMMTIECLHSHFPH) [compound 88]
Percent of Isoproterenol Control Activity (3T3-L1 Mouse Adipocytes): 95%
Percent of Control Activity (C2C12 Cells): 87%
Percent of Control Activity (H4-IIE Cells): 112%

89 (MMNSDSIIPS) [compound 89]
Percent of Isoproterenol Control Activity (3T3-L1 Mouse Adipocytes): 111%
Percent of Control Activity (C2C12 Cells): 112%
Percent of Control Activity (H4-IIE Cells): 110%

90 (MMSVWKVAVQTFNCYYYVLQALIN) [compound 90]
Percent of Isoproterenol Control Activity (3T3-L1 Mouse Adipocytes): 101%
Percent of Control Activity (C2C12 Cells): 97%
Percent of Control Activity (H4-IIE Cells): 104%

91 (MMTHPTTPLTINTKPP) [compound 91]
Percent of Isoproterenol Control Activity (3T3-L1 Mouse Adipocytes): 93%
Percent of Control Activity (C2C12 Cells): 109%
Percent of Control Activity (H4-IIE Cells): 116%

92 (MMTWSPWKPVATKNVEP) [compound 92]
Percent of Isoproterenol Control Activity (3T3-L1 Mouse Adipocytes): 99%
Percent of Control Activity (C2C12 Cells): 93%
Percent of Control Activity (H4-IIE Cells): 124%

93 (MMWKTIVVFQLQEHQWPQYAKLTP) [compound 93]
Percent of Isoproterenol Control Activity (3T3-L1 Mouse Adipocytes): 96%
Percent of Control Activity (C2C12 Cells): 104%
Percent of Control Activity (H4-IIE Cells): 120%

95 (MNHIMAKGHDG) [compound 95]
Percent of Isoproterenol Control Activity (3T3-L1 Mouse Adipocytes): 111%
Percent of Control Activity (C2C12 Cells): 92%
Percent of Control Activity (H4-IIE Cells): 121%

96 (MNHNQYYQSMLIINNHNSYSNKT) [compound 96]
Percent of Isoproterenol Control Activity (3T3-L1 Mouse Adipocytes): 100%
Percent of Control Activity (C2C12 Cells): 91%
Percent of Control Activity (H4-IIE Cells): 130%

97 (MNNSSSTVQP) [compound 97]
Percent of Isoproterenol Control Activity (3T3-L1 Mouse Adipocytes): 105%
Percent of Control Activity (C2C12 Cells): 95%
Percent of Control Activity (H4-IIE Cells): 122%

98 (MNPDQPHHLLLSLYTAIFSKPWW) [compound 98]
Percent of Isoproterenol Control Activity (3T3-L1 Mouse Adipocytes): 97%
Percent of Control Activity (C2C12 Cells): 91%
Percent of Control Activity (H4-IIE Cells): 117%

100 (MPIIRRMSWSP) [compound 100]
Percent of Isoproterenol Control Activity (3T3-L1 Mouse Adipocytes): 105%
Percent of Control Activity (C2C12 Cells): 102%
Percent of Control Activity (H4-IIE Cells): 123%
